Test results as given in patent US20160303114A1 (Laguna Pharmaceuticals, Inc., priority 2013, published 2016).

Key:
[1] = Example 4: plasma concentrations of vanoxerine in patients after an oral vanoxerine HCL tablet; format: in vivo, human; conditions: outlier patient, CYP2D6 slow metabolizer
From the text: The results identified high levels of variability between patients and a single outlier, who was particularly profiled to determine the possible cause of the high plasma concentration levels.
Accordingly, the individual patient could have received administration of ½ to ¼ the dose of other patients for the same effective plasma concentration as the majority of the patients in the study.

[2] = Example 5: concentrations of vanoxerine and its metabolites in patients after a 300 mg dose of vanoxerine; format: in vivo, human; conditions: low concentration group, 300 mg vanoxerine
Procedure: Each patient gave samples before administration of their dose, and then again at nine further time points, 30 minutes after administration, 1, 2, 3, 4, 6, 8, 12, and 24 hours post administration.

[3] = healthy subjects, higher doses of vanoxerine; cited from earlier work
[4] = Preliminary studies of daily use of vanoxerine over 7, 10 and 14 days; format: in vivo; conditions: daily use over 7, 10, and 14 days, 75, 100, 125, and 150 mg a day
From the text: However, control and prevention of events of cardiac arrhythmia are important to these patients to prevent future recurrences and the deleterious effects and morbidity.

Fc1ccc(C(OCCN2CCN(CCCc3ccccc3)CC2)c2ccc(F)cc2)cc1 [Vanoxerine, 1-[2-[bis(4-fluorophenyl)methoxy]ethyl]-4-(3-phenylpropyl)piperazine]
plasma concentration [1]: unusually high plasma concentration | plasma levels, highest at any time point [2]: ~40 ng/mL | effects seen at higher doses [3]: concentration difficulties, increase systolic blood pressure, asthenia, and a feeling of drug influence | effects of daily use [4]: increased heart rate and systolic blood pressure
